Key:
[1] = system: DOCK2; parameters: method as in PMID 22520755; conditions: cited from earlier work
[2] = system: Rac-dependent cell responses; parameters: method as in PMID 22383527; conditions: lamellipodia formation and migration; cited from earlier work
[3] = molecular target: T1, P-Rex1 DHPH domain (Homo sapiens, UniProt Q8TCU6); assay: Mant-GTP GEF activity assay; format: biochemical; conditions: 10 µM
T1 construct: 100 nM EE-P-Rex1 DHPH domains (PREX-in1, compounds 2–10 and 30–128); made in house; host or cells: Sf9 cells (baculovirus)
Description: The mant-GTP GEF activity assay measures the binding of fluorescent 2’/3’-O-(N-Methyl-anthraniloyl)-guanosine-5’-triphosphate (mant)-GTP to Rac, making use of the spectroscopic differences between bound and free mant-GTP. P-Rex1 DHPH domain protein was diluted to 375 nM in exchange buffer (20 mM Tris, pH 7.5 RT, 50 mM NaCl, 200 mM KCl, 4 mM MgCl2, 50 μg/ml fatty-acid-free BSA). The inhibitors PREX-in1 or EHop-016 were diluted to various concentrations in exchange buffer containing 15% DMSO. 4.4 µl P-Rex1 DHPH domain protein were incubated with 1.1 µl PREX-in1 or EHop-016 for 30 min at 30°C, or were mock treated with 1.1 µl vehicle (15% DMSO). 5 μl of the P-Rex1 DHPH / inhibitor mix was then added to 10 µl of a 1.5x reaction mix containing 225 nM bacteria-derived EE-Rac1, 7.5 µM mant-GTP and 15 µM GTP in exchange buffer in a 96-well plate. Final assay concentrations were 150 nM EE-Rac1, 100 nM P-Rex1 DHPH domain, 5 μM mant-GTP, 10 µM GTP, […] fatty-acid-free BSA, 1% DMSO, and the indicated concentrations of inhibitor. Mant-GTP fluorescence was measured in real time in a PHERAstar 384-well fluorescence plate reader at 25°C for 40 min using 360 nm excitation and 440 nm emission.

[4] = system: Tiam1; parameters: method as in PMID 15128949; conditions: cited from earlier work
[5] = system: HEK-293 cells; assay: Cell cycle stages by propidium iodide flow cytometry; format: cell-based; conditions: 24 h treatment, 10 µM
Description: Human embryonic kidney 293 (HEK-293) cells were grown at 37°C in a humidified 5% CO2 atmosphere in Dulbecco’s modified Eagle medium (DMEM, Gibco) supplemented with 10% foetal bovine serum (FBS), 100 units/ml penicillin and 100 µg/ml streptomycin. Cells were passaged by tryptic digest 1:4 approximately every 2 days. To measure cell cycle stages, 2 ml HEK293 cells were plated per well of a 6-well dish (Thermo Scientific, Nunc) at 10^5 cells/ml. After 24 h, the medium was replaced with fresh medium containing various concentrations of PREX-in1, as indicated, or 10 μM NSC23766, or vehicle control (0.1% DMSO), and cells were incubated for a further 24 h. The medium was removed but kept aside to recover any detached cells. Wells were washed with PBS, and cells recovered by trypsinization. Cell suspensions were pooled with the culture supernatant and centrifuged at 433 × g for 5 min at RT. Cells were washed in PBS, resuspended in ice-cold 70% ethanol/PBS, and incubated for 30 min at 4°C for fixation and permeabilization. Cells were washed once more in PBS, then stained with 50 µg/ml propidium iodide in PBS containing 100 µg/ml RNase for 30 min at 37°C. Cells were analysed by flow cytometry for the intensity of propidium iodide staining using a FACSCalibur flow cytometer. 10,000 cells were analysed per sample. Data analysis was done using FloJo software.

[6] = molecular target: T2, full-length P-Rex1 (Homo sapiens, UniProt Q8TCU6); assay: Liposome-based GEF activity assay, PIP3-stimulated full-length P-Rex1; format: biochemical; conditions: 200 µM, pilot experiments, EE-Rac2 substrate
T2 construct: Full-length N-terminally EE-tagged P-Rex1, P-Rex2, the P-Rex1 DH and DHPH domains and the P-Rex2 DH domain were produced in Sf9 cells; made in house; host or cells: Sf9 cells (baculovirus)
Description: All small GTPases and GEFs used were human recombinant proteins. EE-Rac1, EE-Rac2, GST-Cdc42 or GST-RhoA were expressed in Sf9 cells by baculoviral transduction and purified using their epitope tag in their post-translationally prenylated form using Triton X-114 phase separation, essentially as previously described. Briefly, frozen pellets from a 1 litre culture of Sf9 cells transduced with high-titre baculovirus expressing the small GTPase were resuspended in ice-cold Sf9-cell lysis buffer 1 (1x PBS, 40 mM HEPES pH 7.5 at RT, 5 mM MgCl2, 10 mM EGTA, 300 µM GDP, 1 mM DTT, 200 µM PMSF, 20 μg/ml each of leupeptin, pepstatin A, aprotinin and antipain) and lysed by sonication. Triton X-114 was added (to 1% final concentration), and samples were ultracentrifuged at 118,000 × g for 50 min at 4°C. The supernatant was warmed at 37°C until cloudy (30–60 seconds) and centrifuged at 1300 × g for 2 min at 37°C. The upper phase containing non-lipid modified GTPase was discarded and replaced with ice-cold Sf9-cell lysis buffer. The warming/centrifugation steps were repeated twice and lipid-modified GTPase resuspended in ice-cold Sf9-cell lysis buffer 1 supplemented with Triton X-100 (1% final concentration), followed by ultracentrifugation at 118,000 × g for 50 min at 4°C. For EE-tagged GTPases, supernatants were incubated with anti-EE antibody covalently coupled to protein G-Sepharose beads (anti-EE beads, Onyx Pharmaceuticals) and incubated with end-over-end rotation for 90 min on ice. Beads were washed 3 times in wash buffer (PBS, 5 mM MgCl2, 1 mM DTT, 10 μM GDP, 1 mM EGTA, 0.2% Triton X-100) and 5x in elution buffer (40 mM HEPES pH 7.5, 150 mM NaCl, 5 mM MgCl2, 1 mM EGTA, 1 mM DTT, 10 µM GDP). Protein was eluted by three incubations with elution buffer containing peptide Ac-EEYMPME (Activotec, Comberton, UK) and cholate (first 1%, then twice 0.5%) for 20 min on ice. For GST-tagged GTPases, supernatants were incubated with glutathione Sepharose beads and were eluted with glutathione in the same manner. Proteins were concentrated in a YM-10 Centricon (Millipore) at 5000 × g, 4°C. Protein concentration and purity was determined by coomassie staining of SDS-PAGE gels. For use in the mant-GTP assay, EE-Rac 1 was expressed in BL21 (DE3) bacteria (NEB, C25271), by induction with 0.5 mM IPTG overnight at 18°C. Bacterial pellets from 500 ml cultures were resuspended in 20 ml bacterial lysis buffer (40 mM Hepes, pH 7.5 at 4°C, 150 mM NaCl, 1% Triton X-100, 5 mM MgCl2, 1 mM DTT, 300 μM GDP, 200 µM PMSF, and 20 μg/ml each of leupeptin, pepstatin A, aprotinin and antipain) and were lysed by sonication. 5 μg/ml DNAse and 5 μg/ml RNAse were added and the lysate incubated on ice for 10 min. […]

[7] = system: TrioN; parameters: method as in PMID 15128949; conditions: cited from earlier work

T2 sequence (Q8TCU6 whole entry, the tested form may be a part): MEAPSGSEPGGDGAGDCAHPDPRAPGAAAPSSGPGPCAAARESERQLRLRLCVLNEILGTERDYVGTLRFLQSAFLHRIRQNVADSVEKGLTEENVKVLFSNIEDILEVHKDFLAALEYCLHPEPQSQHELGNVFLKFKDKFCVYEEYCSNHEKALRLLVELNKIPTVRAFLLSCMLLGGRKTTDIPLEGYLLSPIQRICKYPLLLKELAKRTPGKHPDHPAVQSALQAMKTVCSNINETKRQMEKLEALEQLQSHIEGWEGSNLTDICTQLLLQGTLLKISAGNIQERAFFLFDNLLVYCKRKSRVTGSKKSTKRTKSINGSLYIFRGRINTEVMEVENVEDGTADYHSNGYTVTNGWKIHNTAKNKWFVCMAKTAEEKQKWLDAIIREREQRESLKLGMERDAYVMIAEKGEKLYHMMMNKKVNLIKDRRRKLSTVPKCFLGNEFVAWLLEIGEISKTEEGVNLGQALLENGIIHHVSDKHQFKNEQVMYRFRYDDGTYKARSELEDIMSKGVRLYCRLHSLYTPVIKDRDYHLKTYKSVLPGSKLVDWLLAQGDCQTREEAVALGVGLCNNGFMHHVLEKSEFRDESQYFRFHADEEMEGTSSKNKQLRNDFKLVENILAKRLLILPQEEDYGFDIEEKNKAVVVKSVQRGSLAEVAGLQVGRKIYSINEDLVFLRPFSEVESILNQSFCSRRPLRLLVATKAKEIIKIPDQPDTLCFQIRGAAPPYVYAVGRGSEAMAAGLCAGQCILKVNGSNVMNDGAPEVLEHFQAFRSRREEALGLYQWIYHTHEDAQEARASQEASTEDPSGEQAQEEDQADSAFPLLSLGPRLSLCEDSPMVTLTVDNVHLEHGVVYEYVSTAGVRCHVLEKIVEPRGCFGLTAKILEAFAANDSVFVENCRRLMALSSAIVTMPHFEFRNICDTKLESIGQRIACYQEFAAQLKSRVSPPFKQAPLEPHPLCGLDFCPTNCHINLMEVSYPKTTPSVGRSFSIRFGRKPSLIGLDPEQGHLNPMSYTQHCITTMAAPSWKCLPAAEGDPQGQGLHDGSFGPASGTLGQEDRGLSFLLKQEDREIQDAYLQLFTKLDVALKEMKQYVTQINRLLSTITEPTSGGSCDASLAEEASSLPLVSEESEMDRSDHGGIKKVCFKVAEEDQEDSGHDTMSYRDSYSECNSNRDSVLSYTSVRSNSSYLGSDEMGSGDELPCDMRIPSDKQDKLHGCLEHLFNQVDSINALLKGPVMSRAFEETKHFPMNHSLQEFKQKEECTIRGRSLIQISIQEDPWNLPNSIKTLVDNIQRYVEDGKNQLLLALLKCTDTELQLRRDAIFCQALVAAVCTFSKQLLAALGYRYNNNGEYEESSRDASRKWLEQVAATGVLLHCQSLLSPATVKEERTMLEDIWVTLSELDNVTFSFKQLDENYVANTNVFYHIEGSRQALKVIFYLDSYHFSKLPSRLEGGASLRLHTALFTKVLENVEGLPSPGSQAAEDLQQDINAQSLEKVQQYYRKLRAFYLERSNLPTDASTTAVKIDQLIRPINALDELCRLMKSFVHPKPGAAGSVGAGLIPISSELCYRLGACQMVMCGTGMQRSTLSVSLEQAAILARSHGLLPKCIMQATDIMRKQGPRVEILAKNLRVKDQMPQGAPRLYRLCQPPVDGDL
T1 sequence (Q8TCU6 49-392 limits assumed): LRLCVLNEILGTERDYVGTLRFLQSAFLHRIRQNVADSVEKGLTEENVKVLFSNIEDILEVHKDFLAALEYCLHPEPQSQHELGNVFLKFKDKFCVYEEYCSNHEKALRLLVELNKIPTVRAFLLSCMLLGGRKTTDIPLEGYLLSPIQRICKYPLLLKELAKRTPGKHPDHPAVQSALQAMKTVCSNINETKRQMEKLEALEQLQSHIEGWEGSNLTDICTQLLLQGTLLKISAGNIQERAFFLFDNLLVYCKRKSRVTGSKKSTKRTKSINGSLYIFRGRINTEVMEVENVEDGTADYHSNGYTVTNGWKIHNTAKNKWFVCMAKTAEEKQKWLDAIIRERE

For `O=C1NN(c2ccccc2)C(=O)/C1=C/C=C/c1ccccc1Cl` [CPYPP], the IC50 [1] is given as 22.8 µM.
For `CCn1c2ccccc2c2cc(Nc3ccnc(NCCCN4CCOCC4)n3)ccc21` [EHop-016, reference compound], the “IC50 for blocking Rac-dependent cell responses” value [2] is listed as “low micromolar” and the “effect on P-Rex1 DHPH-dependent mant-GTP loading of Rac1” value [3] is listed as “did not affect”.
For `CCN(CC)CCCC(C)Nc1nc(C)cc(Nc2ccc3nc(C)cc(N)c3c2)n1` (stereo not shown) [NSC23766, reference compound], the IC50 [4] is listed as about 50 µM, the “cell death (sub-G1 phase)” value [5] is listed as “caused cell death to a similar extent” and the “effect on PIP3-stimulated Rac-GEF activity of full-length P-Rex1” value [6] is listed as “did not appear to inhibit”. The IC50 [7] was about 50 µM.

Reference: publication PMC9645260, “Small-molecule inhibitors of P-Rex guanine-nucleotide exchange factors” (Small GTPases, 2022)
